Reference: patent US10934263B2, “Charged ion channel blockers and methods for use” (Nocion Therapeutics, Inc., priority 2019, dated 2021)

How the values were obtained:
NaV1.7 [1] = biological target: T1, NaV1.7 (Homo sapiens, UniProt Q15858); assay: Whole cell patch clamp, internal block of NaV1.7 current (compound in internal solution); assay type: cell-based; conditions: compound applied internally, manual patch clamp, read-out: Nav1.7 Intracellular Inhibition
T1 construct: expressed in transfected cells; tetracycline-inducible, kept under hygromycin and blasticidin
T1 sequence (Q15858 whole entry): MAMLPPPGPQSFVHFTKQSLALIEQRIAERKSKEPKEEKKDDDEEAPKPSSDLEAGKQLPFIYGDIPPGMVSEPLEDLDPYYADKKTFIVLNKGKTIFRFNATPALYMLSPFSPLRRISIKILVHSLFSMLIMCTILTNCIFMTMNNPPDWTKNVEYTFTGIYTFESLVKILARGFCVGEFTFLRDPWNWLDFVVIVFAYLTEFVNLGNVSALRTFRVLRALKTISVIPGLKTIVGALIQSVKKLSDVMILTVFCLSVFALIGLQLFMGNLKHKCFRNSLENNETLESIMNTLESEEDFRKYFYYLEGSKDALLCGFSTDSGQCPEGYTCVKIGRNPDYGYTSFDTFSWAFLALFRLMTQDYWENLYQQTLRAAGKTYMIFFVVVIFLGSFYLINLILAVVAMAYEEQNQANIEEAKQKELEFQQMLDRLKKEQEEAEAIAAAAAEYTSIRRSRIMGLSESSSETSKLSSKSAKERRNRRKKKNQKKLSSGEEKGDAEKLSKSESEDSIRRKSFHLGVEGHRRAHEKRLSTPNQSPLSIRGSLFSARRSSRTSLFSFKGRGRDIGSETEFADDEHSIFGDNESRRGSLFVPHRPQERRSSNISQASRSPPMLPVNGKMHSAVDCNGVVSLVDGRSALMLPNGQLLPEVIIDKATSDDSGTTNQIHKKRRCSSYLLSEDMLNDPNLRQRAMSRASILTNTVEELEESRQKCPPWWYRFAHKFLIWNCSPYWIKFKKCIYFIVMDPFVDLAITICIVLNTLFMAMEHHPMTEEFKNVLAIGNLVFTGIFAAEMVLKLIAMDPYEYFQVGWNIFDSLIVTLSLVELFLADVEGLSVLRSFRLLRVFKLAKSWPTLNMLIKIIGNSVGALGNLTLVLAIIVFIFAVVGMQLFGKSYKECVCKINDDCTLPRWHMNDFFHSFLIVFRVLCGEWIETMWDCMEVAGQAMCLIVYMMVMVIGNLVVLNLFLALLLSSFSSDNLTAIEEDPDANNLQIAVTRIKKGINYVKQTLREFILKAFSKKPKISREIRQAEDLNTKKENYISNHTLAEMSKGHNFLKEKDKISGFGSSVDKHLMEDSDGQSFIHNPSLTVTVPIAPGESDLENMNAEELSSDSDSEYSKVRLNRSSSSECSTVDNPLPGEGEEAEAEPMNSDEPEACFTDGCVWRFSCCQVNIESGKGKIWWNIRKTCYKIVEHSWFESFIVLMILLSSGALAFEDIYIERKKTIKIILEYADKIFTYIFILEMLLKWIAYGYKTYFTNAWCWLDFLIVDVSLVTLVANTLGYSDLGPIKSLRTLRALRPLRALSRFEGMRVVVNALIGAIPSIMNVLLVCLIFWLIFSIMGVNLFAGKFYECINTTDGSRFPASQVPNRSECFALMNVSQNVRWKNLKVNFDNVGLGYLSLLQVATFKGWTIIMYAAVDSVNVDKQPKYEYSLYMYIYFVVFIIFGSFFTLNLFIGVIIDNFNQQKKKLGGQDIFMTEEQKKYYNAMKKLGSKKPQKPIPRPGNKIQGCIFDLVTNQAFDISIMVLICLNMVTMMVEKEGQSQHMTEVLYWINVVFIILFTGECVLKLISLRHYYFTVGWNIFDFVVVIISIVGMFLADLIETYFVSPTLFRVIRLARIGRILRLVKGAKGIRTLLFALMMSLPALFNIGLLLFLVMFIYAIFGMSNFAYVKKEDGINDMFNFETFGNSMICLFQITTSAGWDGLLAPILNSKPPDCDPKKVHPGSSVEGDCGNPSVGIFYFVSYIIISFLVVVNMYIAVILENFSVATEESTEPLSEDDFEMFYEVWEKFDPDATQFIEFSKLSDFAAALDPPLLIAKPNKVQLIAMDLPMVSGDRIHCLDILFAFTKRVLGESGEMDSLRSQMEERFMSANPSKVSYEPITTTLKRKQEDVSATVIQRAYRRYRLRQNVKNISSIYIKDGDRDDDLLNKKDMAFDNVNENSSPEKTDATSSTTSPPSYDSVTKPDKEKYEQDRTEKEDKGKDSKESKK
Experimental: Representative compounds of the invention were synthesized according to the described methods and tested for the ability to inhibit voltage-gated sodium channels.
NaV1.7 was expressed upon induction with tetracycline. Cells were cultured in DMEM containing 10% dialyzed Fetal Bovine Serum (VWR, Radnor, Pa.), 1% Glutamax (VWR, Radnor, Pa.), 1% Penicillin-Streptomycin (VWR, Radnor, Pa.), 100 mg/L Hygromycin (Thermo Fisher Scientific, Waltham, Mass. and 5 mg/L Blasticidin (Alfa Aesar, Haverhill, Mass.). Cells were grown and maintained at 37° C. in a humidified environment containing 10% CO2 in air. Cells were detached from the culture flask for passage and harvested using 0.05% Trypsin-EDTA (Thermo Fisher Scientific, Waltham, Mass.). To induce NaV1.7, cells were induced with tetracycline (0.1-1 μg/mL, IBI Scientific, Peosta, Iowa) the day before recording and plated onto 24-well plates. Cells were washed with DPBS (VWR, Radnor, Pa.), trypsinized and then triturated five times in 10 mL of growth media to break apart cell aggregates. For one 24-well plate, 2 mL of cell suspension was mixed with 23 mL of fresh growth media and 0.1-1 μg/mL tetracycline added. 1 ml of mixed media with cells was then added to each well of a 24-well plate, with a 12 mm coverslip already placed in the bottom of the well. Cells were then incubated in 37° C. and 10% CO2 overnight.
The intracellular solution contained the following (in mM) CsCl 135, NaCl 10, EGTA 10, HEPES 10, MgCl2 2, adjusted to pH 7.2 with CsOH. The external solution was a normal Ringer solution containing (in mM) NaCl 155, HEPES 10, glucose 10, KCl 3.5, CaCl2 1.5, MgCl2 1 adjusted to pH 7.4 with NaOH. CsCl is from Alfa Aesar, Haverhill, Mass. All other chemicals are from Sigma-Aldrich, St. Louis, Mo. In order to test the degree of internal block by test compounds the compounds were dissolved in internal solution at the indicated test concentration. […] In order to test the degree of external block by test compounds the compounds were dissolved in external solution at the indicated test concentration.
18-24 hours after cells were induced with tetracycline, coverslips were placed into a chamber filled with Normal Ringer solution at room temperature and the chamber placed on a microscope. Pipettes were pulled from borosilicate glass on a P97 puller (Sutter Instrument, Novato, Calif.) and polished with a MF-830 Microforge (Narishige International USA, Inc, Amityville, N.Y.) to have a resistance of 1.5-2.5 MΩ when filled with CsCl internal solution at room temperature. Healthy cells (those that are round and translucent with no visible blemishes) were chosen for seal formation. A seal was formed between the pipette and the cell, and a brief pulse of suction was used to “break in” and establish the whole-cell configuration. The membrane potential was held at −100 mV before the voltage protocol began. Only cells with series resistance between 1.5-5 MΩ were retained for analysis. The voltage protocol was as follows: Cells were held at −100 mV for 12 ms followed by a hyperpolarizing step to −105 mV for 12 ms to monitor the leak. Cells were then stepped back to −100 mV for 40 ms. Cells were then depolarized to −20 mV for 10 ms and then returned to −100 mV for 26 ms.
Once the recording was started, the voltage protocol was run at 30 second intervals for 5 minutes to get a stable baseline. This was followed by four 30-second periods of 5 Hz stimulation of the same voltage protocol separated by 1 minute of rest which was then followed by 0.33 Hz stimulation after the last train. Currents were recorded using PatchMaster software with Heka EPC10 (HEKA Electronics, Lambrecht, Germany). Only cells with inward current amplitudes at −20 mV between 400 pA and 4 nA were accepted. In addition, cells having leak currents greater than 10% of their current amplitudes were discarded. […]

[2] = PAMPA membrane permeability assay; assay type: in vitro ADME; conditions: PAMPA permeability coefficient, GIT lipid, buffer pH 7.4, 4 hours incubation
Experimental: The PAMPA assay (pION, Inc., Woburn Mass.) was used to determine the ability of compounds of the invention to cross an artificial lipid membrane by passive diffusion. Test compounds were dissolved in DMSO (10 mM) and diluted 200-fold in buffer (pION Inc., pH 7.4) to provide 50 uM stock solutions. Buffer (150 μL) was added to a UV blank plate and stock solutions (150 μL) were transferred to a UV reference plate. The blank and reference spectrum were read using a spectrophotometer. Stock solutions (200 μL) were added to the donor plate of the PAMPA sandwich plate and an accept plate painted with GIT lipid (pION Inc, 5 μL) was placed on top. Buffer (200 μL) was added to the acceptor plate and the PAMPA sandwich plate was incubated for 4 hours. Aliquots (150 μL) from the acceptor plate were added to a UV plate and read as acceptor spectrum. Aliquots (150 μL) of the donor solutions were added to a UV analysis plate and read as donor spectrum. The permeability coefficient of test compounds was calculated using PAMPA Explorer™ software (version 3.5.0.4) based on the AUC of the reference plate, the donor plate, and the acceptor plate.

NaV1.7 [3] = biological target: T1, NaV1.7; assay: Automated patch clamp (Qube 384), internal block of NaV1.7 in HEK293 cells; assay type: cell-based; conditions: compound in internal solution, read-out: Nav1.7 Intracellular Inhibition (IC50)
Experimental: NaV1.7 was expressed in HEK293 cells upon induction with tetracycline. Cells were cultured in DMEM containing 10% dialyzed Fetal Bovine Serum (VWR, Radnor, Pa.), 1% Glutamax (VWR, Radnor, Pa.), 1% Penicillin-Streptomycin (VWR, Radnor, Pa.), 100 mg/L Hygromycin (Thermo Fisher Scientific, Waltham, Mass. and 5 mg/L Blasticidin (Alfa Aesar, Haverhill, Mass.). Cells were grown and maintained at 37° C. in a humidified environment containing 10% CO2 in air. Cells were detached from the culture flask for passage and harvested using 0.05% Trypsin-EDTA (Thermo Fisher Scientific, Waltham, Mass.). To induce NaV1.7, cells were induced with tetracycline (0.1-1 μg/mL, IBI Scientific, Peosta, Iowa) the day before recording.
Before experiments, cells were washed with DPBS (VWR, Radnor, Pa.), digested with Detachin (VWR Radnor, Pa.) and then triturated 10 times in CHO Serum-Free Media (VWR Radnor, Pa.) to resuspend the cells and to break apart cell aggregates. Cells were counted and the final concentration was set at 2-5 million cells per mL.
The intracellular solution contained the following: 140 mM CsF, 1 mM/5 mM EGTA/CsOH, 10 mM HEPES, 10 mM NaCl, adjusted to pH 7.3 with CsOH, and osmolality to 320 with sucrose. The external solution contained the following: 145 mM NaCl, 4 mM KCl, 1 mM MgCl2, 2 mM CaCl2, 10 mM HEPES, 10 mM Glucose, adjusted to pH 7.4 with CsOH and osmolality to 305 with sucrose. All chemicals are from Sigma-Aldrich, St. Louis, Mo. In order to test the degree of internal block by test compounds, the compounds were dissolved in internal solution at the indicated test concentration. […] In order to test the degree of external block by test compounds the compounds were dissolved in external solution at the indicated test concentration.
Automated Patch Clamps were performed on Qube 384 (Sophion Bioscience, Woburn Mass.) with multihole Qchips at a temperature setting of 22 degrees. The whole cells configuration was formed with default Qube seal and break-in parameter. The membrane potential was held at −100 mV before the voltage protocol began. Two voltage protocols were followed.
Step 1: Cells were held at −100 mV with a depolarized pulse to −20 mV for 10 ms, the interval was set at 5 s. Currents were corrected by default leak subtraction from every pulse. The duration was set at 5 mins.
Step 2: Cells were held at −100 mV with a depolarized pulse to −20 mV for 10 ms. The frequency was 5 Hz. Currents were corrected by leak subtraction calculated before step 2. The duration was set at 4 mins.
After Step 2, the Qchip was removed from the recording chamber. The internal solution was changed with solutions containing test compounds. Qchips were held at −100 mV without pulsing after being replaced in the recording chamber. The total solution switching time was 8 minutes. After the internal solution exchange, Cells were recorded and step 2 for repeated for 10 minutes.
Data analysis was performed by Sophion Analyzer. Cells were filtered with minimum 50 MOhm seal resistance and minimum 5 nA starting current. The rundown of the currents was corrected with control cells (Non-Drug). The remaining was calculated by averaging last 3 points in the end of experiments. The base line was calculated as the average of last 3 points of Step 2. IC50 curves were plotted with DR-plots/Hill function (a dose-response plot with a Hill fit). Data analysis was performed by Sophion Analyzer.

Structure (SMILES) | inhibition at 10 µM (NaV1.7 [1]) [%] | PAMPA (10^−6 cm/s) [2] | IC50 (NaV1.7 [3]) [µM] | inhibition at 32 µM (NaV1.7 [1]) [%]
Cc1cc(F)cc(C)c1NC(=O)C[n+]1ccccc1.[Br-] [Compound 7A, 1-(2-((4-fluoro-2,6-dimethylphenyl)amino)-2-oxoethyl) pyridin-1-ium bromide] |  | + (<0.1 10^−6 cm/s) |  | < 40
Cc1cccc(C)c1NC(=O)C[n+]1ccccc1.[Br-] [Compound 1A, 1-(2-((2,6-dimethylphenyl)amino)-2-oxoethyl) pyridin-1-ium bromide] |  | ++ (0.1-2.0 10^−6 cm/s) |  | 70 to 95
Cc1cccc(C)c1NC(=O)C[n+]1cccc(C(=O)OC2CCCC2)c1 [Compound 105] |  |  | 1 to 3 | 
Cc1cccc(C)c1NC(=O)C[n+]1cc(CO)n(C(C)C)c1 [Compound 59] | 70 to 95 | ++ (0.1-2.0 10^−6 cm/s) | 10 to 30 | 
Cc1cccc(C)c1NC(=O)C[n+]1cccc(C(=O)N(C)C)c1 [Compound 41] | 40 to 70 | + (<0.1 10^−6 cm/s) |  | 
Cc1cccc(C)c1NC(=O)C[n+]1ccc2ccccc2c1.[Br-] [Compound 15A] |  | ++ (0.1-2.0 10^−6 cm/s) |  | > 95
Cc1cccc(C)c1NC(=O)C[n+]1ccc(-c2ccccc2)cc1.[Br-] [Compound 14A] |  | + (<0.1 10^−6 cm/s) |  | < 40
CCNC(=O)Cn1cc[n+](CC(=O)Nc2c(C)cccc2C)c1 [Compound 62] | < 40 | + (<0.1 10^−6 cm/s) |  | 
Cc1cccc(C)c1NC(=O)C[n+]1cc(-c2ccccc2)n(C)c1.[Br-] [Compound 24A] |  | + (<0.1 10^−6 cm/s) |  | 70 to 95
Cc1cc(C#N)cc(C)c1NC(=O)C[n+]1ccccc1.[Br-] [Compound 11A, 1-(2-((4-cyano-2,6-dimethylphenyl)amino)-2-oxoethyl) pyridin-1-ium bromide] |  | + (<0.1 10^−6 cm/s) |  | < 40

The next lines start with the values.

inhibition at 10 µM (NaV1.7 [1]) [%] | PAMPA (10^−6 cm/s) [2] | IC50 (NaV1.7 [3]) [µM] | inhibition at 32 µM (NaV1.7 [1]) [%] | Structure (SMILES)
70 to 95 | ++ (0.1-2.0 10^−6 cm/s) | 10 to 30 |  | Cc1cccc(C)c1NC(=O)Cn1cc[n+](CC(=O)Nc2c(C)cccc2C)c1 [Compound 110]
 | + (<0.1 10^−6 cm/s) |  | < 40 | COc1cc(C)c(NC(=O)C[n+]2ccccc2)c(C)c1.[Br-] [Compound 10A, 1-(2-((4-methoxy-2,6-dimethylphenyl)amino)-2-oxoethyl) pyridin-1-ium bromide]
 | ++ (0.1-2.0 10^−6 cm/s) |  | 70 to 95 | CCC(C(=O)Nc1c(C)cccc1C)[n+]1ccccc1.[Br-] (stereo not shown) [Compound 3A, 1-(1-((2,6-dimethylphenyl)amino)-1-oxobutan-2-yl)pyridin-1-ium bromide]
 | + (<0.1 10^−6 cm/s) |  | 40 to 70 | Cc1cccc(C)c1NC(=O)C[n+]1ccn(C)c1.[Br-] [Compound 2A, 3-(2-((2,6-dimethylphenyl)amino)-2-oxoethyl)-1-methyl-1H-imidazol-3-ium bromide]
40 to 70 | +++ (2.0-10.010^−6 cm/s) |  |  | CCOC(=O)Cn1cc[n+](CC(=O)Nc2c(C)cccc2C)c1 [Compound 60]
 | + (<0.1 10^−6 cm/s) |  | < 40 | Cc1cc(Cl)cc(C)c1NC(=O)C[n+]1ccccc1.[Br-] [Compound 9A, 1-(2-((4-chloro-2,6-dimethylphenyl)amino)-2-oxoethyl) pyridin-1-ium bromide]
 | + (<0.1 10^−6 cm/s) |  | > 95 | Cc1cccc(C)c1NC(=O)C[n+]1cccc(C2CCCC2)c1.[Br-] [Compound 21A]
40 to 70 | + (<0.1 10^−6 cm/s) |  |  | CCCCCCn1cc[n+](CC(=O)Nc2c(C)cccc2C)c1 [Compound 63]
< 40 | + (<0.1 10^−6 cm/s) | 10 to 30 |  | Cc1cccc(C)c1NC(=O)C[n+]1cccc(-c2nn[nH]n2)c1 [Compound 53]
